Experimental data published in patent US20210221785A1, “AMINO-PYRIMIDONYL DERIVATIVES, A PROCESS FOR THEIR PREPARATION AND PHARMACEUTICAL COMPOSITIONS CONTAINING THEM” (LES LABORATOIRES SERVIER, priority 2018, published 2021).
Structures can show the parent of a compound that is named as a salt.

Tests used:
[1] = system: Z138 mantle cell lymphoma tumour cell lines; assay: In vitro cytotoxicity, MTT assay; type: cell-based; conditions: Z138 cells exposed to the test compounds for 96 hours, cell viability vs DMSO treated cells
How it was run: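 Z138 cells exposed to compounds for 96 hours, then MTT added for 4 hours. Viable cells quantified from formazan absorbance at 540 nm.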

[2] = target: T1, His-His-USP7 (aa208-560, |C315A|) (Homo sapiens, UniProt Q93009, C315A); assay: Evaluation of the inhibition of USP7 by the Fluorescence Intensity (FLINT) readings; type: biochemical; conditions: 0.25 nM His-His-USP7, compound incubated 60 minutes at 30° C., 500 nM Ubiquitin-Rhodamine-110 substrate; 50% reduction in kinetic rate
T1 construct: His-His-USP7 (aa208-560, |C315A|); His-His (N)
How it was run: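 0.25 nM His-His-USP7 (aa208–560, C315A) preincubated 60 min at 30 °C with compound in 100 mM Bicine pH 8.0, 0.01% Triton X-100, 1 mM TCEP, 10% DMSO. Reaction started with 500 nM ubiquitin-rhodamine-110 and fluorescence (Ex485/Em535) read every 3 min for 21 min. IC50 derived from kinetic-rate reduction over an 11-point curve, 4-parameter fit.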

T1 sequence (Q93009 208-560 C315A): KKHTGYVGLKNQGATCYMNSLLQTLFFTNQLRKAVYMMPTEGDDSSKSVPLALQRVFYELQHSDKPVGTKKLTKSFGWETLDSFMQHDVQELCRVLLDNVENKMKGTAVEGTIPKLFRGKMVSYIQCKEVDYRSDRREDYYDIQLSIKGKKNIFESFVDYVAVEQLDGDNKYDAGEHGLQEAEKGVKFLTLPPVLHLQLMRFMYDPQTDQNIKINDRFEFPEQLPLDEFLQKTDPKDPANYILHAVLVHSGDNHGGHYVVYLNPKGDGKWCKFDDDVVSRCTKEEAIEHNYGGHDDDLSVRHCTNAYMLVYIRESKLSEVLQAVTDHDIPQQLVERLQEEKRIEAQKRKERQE

Compound	IC50 ([1]; Homo sapiens, Z-138, 96 h) [µM]	IC50 [2] [µM]	IC50 [1] [µM]
CO[C@]1(C#Cc2nnccc2C)CC[C@@H](C(=O)N2CC[C@](O)(Cn3cnc(Oc4ccc(F)cc4)c(N)c3=O)C(F)(F)C2)[C@H](c2ccccc2)C1 [Example 170, 5-amino-3-{[(4S)-3,3-difluoro-4-hydroxy-1-[(1R,2R,4R)-4-methoxy-4-[2-(4-methylpyridazin-3-yl)ethynyl]-2-phenylcyclohexanecarbonyl]piperidin-4-yl]methyl}-6-(4-fluorophenoxy)-3,4-dihydropyrimidin-4-one]	0.0219	0.0398	–
Nc1c(Oc2ccc(F)cc2)ncn(CC2(O)CCN(C(=O)[C@@H]3CC[C@@](F)(C#Cc4cnccn4)C[C@H]3c3ccccc3)CC2)c1=O [Example 137, 5-amino-3-({1-[(1R42R,4S)-4-fluoro-2-phenyl-4-[2-(pyrazin-2-yl)ethynyl]cyclohexanecarbonyl]-4-hydroxypiperidin-4-yl}methyl)-6-(4-fluorophenoxy)-3,4-dihydropyrimidin-4-one]	0.0246	0.0627	–
Nc1c(Oc2ccccc2)ncn(CC2(O)CCN(C(=O)[C@@H]3CCC(F)(F)C[C@H]3n3cccc3)CC2)c1=O [Example 83, 5-amino-3-({1-[(1R,2R)-4,4-difluoro-2-(1H-pyrrol-1-yl)cyclohexane-1-carbonyl]-4-hydroxypiperidin-4-yl}methyl)-6-phenoxypyrimidin-4(3H)-one]	0.327	0.22	–
Nc1c(Oc2ccc(F)cc2)ncn(CC2(O)CCN(C(=O)[C@@H]3CC[C@](O)(Cc4ccccn4)C[C@H]3c3ccccc3)CC2)c1=O (relative stereo) [Example 96, rel-5-amino-6-(4-fluorophenoxy)-3-({4-hydroxy-1-[(1R,2R,4R)-4-hydroxy-2-phenyl-4-](pyridin-2-yl)methyl]cyclohexanecarbonyl]piperidin-4-yl}methyl)-3,4-dihydropyrimidin-4-one]	0.116	0.109	–
Nc1c(Oc2ccc3c(c2)CNCC3)ncn(CC2(O)CCN(C(=O)[C@@H]3CCC(F)(F)C[C@H]3c3ccccc3)CC2)c1=O [Example 26, 5-amino-3-({1-[(1R,2R)-4,4-difluoro-2-phenylcyclohexane-1-carbonyl]-4-hydroxypiperidin-4-yl}methyl)-6-[(1,2,3,4-tetrahydroisoquinolin-7-yl)oxy]pyrimidin-4(3H)-one, hydrochloride]	0.406	0.02	–
Nc1c(Oc2ccc(F)cc2)ncn(CC2(O)CCN(C(=O)[C@@H]3CC[C@](F)(C#Cc4cccnc4)C[C@H]3c3ccccc3)CC2)c1=O [Example 130, 5-amino-3-[(1-{[(1R,2R,4R)-4-fluoro-2-phenyl-4-[2-(pyridin-3-yl)ethynyl]cyclohexyl]carbonyl}-4-hydroxypiperidin-4-yl)methyl]-6-(4-fluorophenoxy)pyrimidin-4-one]	0.0144	0.017	–
Nc1c(Oc2ccc(F)cc2)ncn(CC2(O)CCN(C(=O)[C@@H]3CC[C@@](O)(Cc4ccccn4)C[C@H]3c3ccccc3)CC2)c1=O (relative stereo) [Example 97, rel-5-amino-6-(4-fluorophenoxy)-3-[(4-hydroxy-1-{[(1R,2R,4S)-4-hydroxy-2-phenyl-4-(pyridin-2-ylmethyl)cyclohexyl]carbonyl}piperidin-4-yl)methyl]pyrimidin-4-one]	0.497	0.0382	–
C#CC1(F)CC[C@@H](C(=O)N2CCC(O)(Cn3cnc(Oc4ccc(F)cc4)c(N)c3=O)CC2)[C@H](c2ccccc2)C1 (relative stereo) [Example 93, rel-5-amino-3-({1-[(1R,2R)-4-ethynyl-4-fluoro-2-phenyl-cyclohexanecarbonyl]-4-hydroxypiperidin-4-yl}methyI)-6-(4-fluorophenoxy)-3,4-dihydropyrimidin-4-one]	0.0411	0.0663	–
5-amino-6-(3-chlorophenyl)-3-({1-[(1R,2R)-4,4-difluoro-2-phenylcyclohexane-1-carbonyl]-4-hydroxypiperidin-4-yl}methyl)pyrimidin-4(3H)-one [Example 13]	–	0.0975	0.178
Nc1c(Oc2ccc(F)cc2)ncn(CC2(O)CCN(C(=O)[C@@H]3CC[C@](F)(C#Cc4ncccn4)C[C@H]3c3ccccc3)CC2)c1=O [Example 141, 5-amino-3-[(1-{[(1R,2R,4R)-4-fluoro-2-phenyl-4-[2-(pyrimidin-2-yl)ethynyl]cyclohexyl]carbonyl}-4-hydroxypiperidin-4-yl)methyl]-6-(4-fluorophenoxy)pyrimidin-4-one]	0.0117	0.041	–
Nc1c(Oc2ccc(F)cc2)ncn(CC2(O)CCN(C(=O)[C@@H]3CC[C@](F)(C#Cc4cncnc4)C[C@H]3c3ccccc3)CC2)c1=O [Example 144, 5-amino-3-({1-[(1R,2R,4R)-4-fluoro-2-phenyl-4-[2-(pyrimidin-5-yl)ethynyl]cyclohexanecarbonyl]-4-hydroxypiperidin-4-yl}methyl)-6-(4-fluorophenyoxy)-3,4-dihydropyrimidin-4-one]	0.0122	0.021	–
C#C[C@]1(F)CC[C@@H](C(=O)N2CCC(O)(Cn3cnc(Oc4ccc(F)cc4)c(N)c3=O)CC2)[C@H](c2ccccc2)C1 [Example 122, 5-amino-3-({1-[(1R,2R,4S)-4-ethynyl-4-fluoro-2-phenylcyclohexanecarbonyl]-4-hydroxypiperidin-4-yl}methyl)-6-(4-fluorophenoxy)-3,4-dihydropyrimidin-4-one]	0.0374	0.0263	–
C#C[C@]1(O)CC[C@@H](C(=O)N2CCC(O)(Cn3cnc(Oc4ccc(F)cc4)c(N)c3=O)CC2)[C@H](c2ccccc2)C1 (relative stereo) [Example 92, rel-5-amino-3-[(1-{[(1R,2R,4S)-4-ethynyl-4-hydroxy-2-phenyl-cyclohexyl]carbonyl}-4-hydroxypiperidin-4-yl)methyl]-6-(4-fluorophenoxy)pyrimidin-4-one]	0.189	0.23	–
Nc1c(Oc2ccc(F)cc2)ncn(CC2(O)CCN(C(=O)[C@@H]3CC[C@](F)(C#Cc4nccnc4Cl)C[C@H]3c3ccccc3)CC2)c1=O [Example 153, 5-amino-3-({1-[(1R,2R,4R)-4-[2-(3-chloropyrazin-2-yl)ethynyl]-4-fluoro-2-phenylcyclohexanecarbonyl]-4-hydroxypiperidin-4-yl}methyl)-6-(4-fluorophenoxy)-3,4-dihydropyrimidin-4-one]	0.0175	0.0371	–
COc1cc(Oc2ncn(CC3(O)CCN(C(=O)[C@@H]4CCC(F)(F)C[C@H]4c4ccccc4)CC3)c(=O)c2N)ccc1F [Example 16, 5-amino-3-({1-[(1R,2R)-4,4-difluoro-2-phenylcyclohexane-1-carbonyl]-4-hydroxypiperidin-4-yl}methyl)-6-(4-fluoro-3-methoxyphenoxy)pyrimidin-4(3H)-one]	0.0424	0.0516	–
Nc1c(Oc2ccccc2)ncn(CC2(O)CCN(C(=O)[C@@H]3CC(F)(F)CC[C@H]3c3ccccc3)CC2)c1=O [Example 82, 5-amino-3-({1-[(1R,2R)-5,5-difluoro-2-phenylcyclohexane-1-carbonyl]-4-hydroxypiperidin-4-yl}methyl)-6-phenoxypyrimidin-4(3H)-one]	0.18	0.0903	–
COc1nccnc1C#C[C@@]1(F)CC[C@@H](C(=O)N2CCC(O)(Cn3cnc(Oc4ccc(F)cc4)c(N)c3=O)CC2)[C@H](c2ccccc2)C1 [Example 154, 5-amino-3-({1-[(1R,2R,4R)-4-fluoro-4-[2-(3-methoxypyrazin-2-yl)ethynyl]-2-phenylcyclohexanecarbonyl]-4-hydroxypiperidin-4-yl}methyl)-6-(4-fluorophenoxy)-3,4-dihydropyrimidin-4-one]	0.016	0.0247	–
Nc1c(Oc2ccc(Cl)c(O)c2)ncn(CC2(O)CCN(C(=O)[C@@H]3CCC(F)(F)C[C@H]3c3ccccc3)CC2)c1=O [Example 110, 5-amino-6-(4-chloro-3-hydroxyphenoxy)-3({1-[(1R,2R)-4,4-difluoro-2-phenylcyclohexane-1-carbonyl]-4-hydroxypiperidin-4-yl}methyl)pyrimidin-4(3H)-one]	0.0254	0.028	–
Cc1ccnnc1C#C[C@@]1(F)CC[C@@H](C(=O)N2CC[C@](O)(Cn3cnc(Oc4ccc(F)cc4)c(N)c3=O)C(F)(F)C2)[C@H](c2ccccc2)C1 [Example 171, 5-amino-3-{[(4S)-3,3-difluoro-1-[(1R,2R,4R)-4-fluoro-4-[2-(4-methylpyridazin-3-yl)ethynyl]-2-phenylcyclohexanecarbonyl]-4-hydroxypiperidin-4-yl]methyl}-6-(4-fluorophenoxy)-3,4-dihydropyrimidin-4-one]	0.0168	0.0238	–
CCC(N)c1ccc(Oc2ncn(CC3(O)CCN(C(=O)[C@@H]4CCC(F)(F)C[C@H]4c4ccccc4)CC3)c(=O)c2N)cc1 (stereo partly drawn) [Example 56, 5-amino-6-[4-(1-aminopropyl)phenoxy]-3-({1-[(1R,2R)-4,4-difluoro-2-phenylcyclohexane-1-carbonyl]-4-hydroxypiperidin-4-yl}methyl)pyrimidin-4(3H)-one]	0.539	0.015	–
CN(C)Cc1ccc(Oc2ncn(CC3(O)CCN(C(=O)[C@@H]4CCC(F)(F)C[C@H]4c4ccccc4)CC3)c(=O)c2N)cc1 [Example 108, 5-amino-3-({1-[(1R,2R)-4,4-difluoro-2-phenylcyclohexane-1-carbonyl]-4-hydroxypiperidin-4-yl}methyl)-6-{4-[(dimethylamino)methyl]phenoxy}pyrimidin-4(3H)-one]	0.654	0.0639	–
